A short description of data set [1]: Metabolic stability in plasma (quantitative HPLC). In kind it is in vitro ADME, human. As to the method:
(§1) FIGS. 17A and 17B. 4×4MyDI is metabolically stable in comparison to the linear MyDI peptide. 4×4MyDI vs. linear MyDI heptapeptide were incubated independently in either human plasma […] or human plasma supplemented with Brush Border Membrane Vesicles (BBMV, 18B). At various time points the solution was sampled and the amount of remaining compound was determined by quantitative HPLC.
(§2) Peptide backbone cyclization confers metabolic stability on peptides that are inherently susceptible to degradation by proteases. […] The stability of the compounds was then tested in plasma enriched with Brush Border Membrane Vesicles (BBMV). This system models the degradative conditions of the intestine.

Data set [2] has as its system MyD88-dependent signaling. Briefly: Library screen: TNFα production by U937 macrophage cells stimulated with PAM3Csk. In kind it is cell-based, human. Particulars: PAM3Csk overnight, peptide concentration estimated 2-4 μM. As to the method: FIG. 4. Screening results of the peptide library of 16 compounds. Human macrophage U937 cells were stimulated with PAM3csk overnight in the absence or presence of each of the cyclic peptides. Human TNFα levels in the supernatants were determined by ELISA. […].
The backbone cyclic library of 16 compounds synthesized in Example 3 was screened for inhibition of MyD88-dependent signaling through innate immune receptors employing the human macrophage cell line U937. […] The concentration of the cyclic peptides in the library was estimated to be 2-4 μM.

Data set [3] concerns OCI-LY3 (MyD88 L265P) cells. In words: Proliferation of lymphoma cells (Promega CellTiter viability assay). Particulars: 48 h; compared with OCI-LY19 (MyD88 WT). The format is cell-based, human. As to the method: FIGS. 18A and 18B. 4×4MyDI and Myr-4×4MyDI block proliferation of Ly3 lymphoma cells that carry the L265P oncogenic mutation in MyD88. Cell lines OCI-LY3 (MyD88^L265P) and OCI-LY19 (MyD88^WT) were grown in RPMI supplemented with 10% FCS. Cells were counted and plated at identical concentrations in triplicate wells of 96 well plates and decreasing concentrations of 4×4MyDI […], or Myr-4×4MyDI (19B), was added to the wells. After 48 h cell viability was tested using the Promega CellTiter viability assay according to the manufacturer's instructions. Percent inhibition was calculated as [(1-OD of well with inhibitor/OD of well without inhibitor)*1001. Negative values in A represent enhanced growth in the presence of the inhibitor.
Genomic DNA was prepared from the human lymphoma cell lines OCI-LY3 (MyD88^L265P) and OCI-LY19 (MyD88^WT) to confirm the presence of the activating L265P mutation in the OCI-Ly3 cells (and the WT sequence in the OCI-Ly19 cells). The MyD88 region was amplified using the forward and reverse primers GGGATATGCTGAACTAAGTTGCCAC (SEQ ID NO: 7) and GACGTGTCTGTGAAGTTGGCATCTC (SEQ ID NO: 8), respectively, as described in Xu, L. et al Blood (2013) 121(11): 2051-2058. The PCR product was sequenced to confirm the mutation.
The cell lines were incubated alone or with increasing concentrations of the 4×4MyDI. […]

The subject of data set [4] is NFκB p65 nuclear translocation. In words: NFκB p65 nuclear translocation in HeLa cells stimulated with TNFα or IL-1β. The format is cell-based. On the procedure:
FIG. 6. HeLa assay showing specificity of MyD88 inhibition. HeLa cells were stimulated with recombinant TNFα or IL-1β and NFkB localization was determined with anti-p65 conjugated to rhodamine. The percent of cells with nuclear localization was determined and is shown in the bar graphs on the right. 6A: Top row, HeLa cells transduced with control shRNA. Second row, shRNA knock-down of MyD88. 6B: Top row, HeLa cells treated with MyD88 inhibitor linear peptide. Bottom row, HeLa cells treated with scrambled control version of the MyD88 inhibitor linear peptide (SEQ ID NO: 5).
FIG. 7. HeLa assay showing specificity of MyD88 inhibition by 4×4MyDI. HeLa cells were stimulated with recombinant TNFα or IL-1b and NFkB localization was determined with anti-p65 conjugated to rhodamine. The percent of cells with nuclear localization was determined, and is shown in the bar graphs on the right. Top row, HeLa cells with no pre-treatment. Second row, HeLa cells pre-treated for 30 min with the backbone cyclic 4×4MyDI compound.
Lead compounds were further tested in vitro to confirm the specificity of the inhibition. A fluorescence-based in vitro activity assay that determines the degree of activation of the transcription factor NFκB was established. In this assay, cells are treated with either TNFα or IL-1b, both inflammatory cytokines that activate NFκB. Upon activation, the p65 unit of the NFκB transcription factor re-locates from the cytoplasm to the nucleus. Using fluorescently-tagged antibodies to p65, the cytoplasmic vs. nuclear localization of the factor is determined. Importantly, since the signaling of IL-1b, but not TNFα, is dependent on MyD88, this assay can establish the specificity of the inhibition achieved using the lead compounds.
Cells were activated with either IL-1β (the signaling of the IL-1 receptor is dependent on MyD88), or with TNFα (signaling of its receptor is independent of MyD88). The activation was measured by the translocation of NFκB from the cytoplasm to the nucleus. As a positive control, a stable MyD88 knock-down cell line was established using lentiviral encoded shRNA.
Using the same system, when cells were treated with the backbone cyclic peptide 4×4MyDI, activation by IL-1β was blocked, however when treated with TNFα the activation was not inhibited.

In data set [5] the test system is T cells responding to the self-antigen MOG35-55. In words: Cytokine response of draining lymph node cells of treated EAE mice to MOG35-55. The format is in vivo. Conditions: 4 mg/Kg three times per week until day 11; ex vivo restimulation. On the procedure:
FIGS. 16A and 16B. inhibition of IFNγ and IL-17 secretion in 4×4MyDI treated mice. C57BL/6 mice were immunized with MOG35-55/CFA and administered pertussis toxin on day zero and after 48 h. Groups of mice were treated with 4×4MyDI at 4 mg/kg from day zero, three times a week, and animals were sacrificed on day 11 after immunization. Control mice were treated with an equal volume of PBS using the same schedule of administration. Single cell suspensions from draining lymph nodes were stimulated with different concentrations of MOG35-55 peptide (SEQ ID NO: 4) for three days and supernatants were collected for analysis of cytokines by ELISA.
Of note, IFNγ and IL-17 are considered pro-inflammatory cytokines that are highly detrimental in the autoimmune process.

The nature of data set [6]: Metabolic stability in plasma with Brush Border Membrane Vesicles (BBMV). Particulars: human; over two hours; read-out: decrease of amount in plasma enriched with BBMV. The format is in vitro ADME. On the procedure:
as §1, §2

SMILES strings stand for the structures. Numbered stars: 1 amine (or outer) side, 2 acyl side, 3 side chain; on linkers, the order of the positions; unused ones are H or OH. Bridge positions count the residues as written; N and C are the ends. Square brackets hold non-standard residues; d marks the D form. Peptide text beside a SMILES is read from it. CO = O=C([*:1])[*:2]; Nlys = NCCCCNCC(=O)O

On to `CC(C)C[C@@H]1NC(=O)[C@H](C(C)C)NC(=O)[C@H](CC(=O)O)NC(=O)[C@H](CCCNC(=N)N)NC(=O)CN(C(=O)[C@@H](N)Cc2c[nH]c3ccccc23)CCCCNC(=O)NCCCCN(CC(=O)NCC(=O)N[C@H](C(N)=O)[C@@H](C)O)C1=O` [4×4MyDI] (H-W[Nlys]RDVL[Nlys]GT-NH2; linker 2-7 via CO; N-terminus assumed), for which the metabolised at 4 h in data set [1] (human, human plasma, over the following two hours (hours 2-4), read-out: decrease of amount in plasma) came to 20%. In addition, the stability in plasma entry in data set [1] (plasma, 4×4MyDI: first two hours) is reported as “completely stable”. In data set [2], the “MyD88 inhibitory activity (reduction in TNFα production)” value is given as “intermediate activity”. Besides, the “proliferation of OCI-Ly3 cells” value in data set [3] is reported as “specifically blocked proliferation”. Also, in data set [4] (HeLa cells, IL-1β), the “NFκB activation by IL-1β” value is on record as “blocked”. Moreover, the “Percent p65 nuclear translocation, IL-1β” value in data set [4] (HeLa cells, IL-1β (MyD88 dependent)) is 27%. Also, the “NFκB activation by TNFα” value in data set [4] (HeLa cells, TNFα) was “not inhibited”. Moreover, the “Percent p65 nuclear translocation, TNFα” value in data set [4] (HeLa cells, TNFα (MyD88 independent)) is listed as 97%. The “Percent p65 nuclear translocation, No stimulation” value in data set [4] (HeLa cells, no stimulation) is reported as 0%. Moreover, the “specificity of MyD88 inhibition” value in data set [4] (IL-1β versus TNFα) is given as “specific inhibitor”. In data set [5], the “IFNγ produced by T cells responding to MOG35-55” value is on record as “complete inhibition” and the “IL-17 produced by T cells responding to MOG35-55” value is listed as “complete inhibition”. The metabolised at 2 h in data set [6] stood at 40%.

The values are drawn from patent US10662225B2, “Backbone cyclized inhibitory peptides of myeloid differentiation factor 88 (MyD88)” (Yissum Research Development Company of the Hebrew …, priority 2016, dated 2020).
